Experimental data taken from ChEMBL document CHEMBL4819115, “Discovery of potent and selective reversible Bruton's tyrosine kinase inhibitors” (Bioorg Med Chem, 2021).
In brackets after ≈: the same amount, converted by molar mass. Each block holds one compound with its values, some of them ahead of it.

How the values were obtained:
physchem = details: FaSSIF
[1] = Kinetic solubility of the compound; format: physicochemical; details: read-out: Kinetic_solubility
[2] = AUC(0 to 4 hrs) in rat at 0.2 mg/kg, iv; format: ADME, organism-based; set-up: time < 4 hr, route intravenous, dose 0.2 mg/kg; details: in vivo
[3] = Intrinsic clearance in human microsomes; format: ADME, Microsome
[4] = Clearance in rat at 0.2 mg/kg, iv; format: ADME, organism-based; details: in vivo
[5] = Stability of the compound in mouse plasma assessed as parent compound remaining after 4 hrs; format: ADME, cell-free; details: read-out: Stabilty
[6] = Cmax in rat at 10 mg/kg, po; format: ADME, organism-based; set-up: route oral, dose 10 mg/kg; details: in vivo
[7] = Intrinsic clearance in mouse microsomes; format: ADME, Microsome
[8] = Intrinsic clearance in rat microsomes; format: ADME, Microsome
[9] = Half life in rat at 10 mg/kg, po; format: ADME, organism-based; details: in vivo
[10] = Volume of distribution at steady state in rat at 0.2 mg/kg, iv; format: ADME, organism-based; details: in vivo, read-out: Vdss
[11] = Oral bioavailability in rat at 10 mg/kg; format: ADME, organism-based; details: in vivo
[12] = AUC(0 to 6 hrs) in rat at 10 mg/kg, po; format: ADME, organism-based; set-up: time < 6 hr, route oral, dose 10 mg/kg; details: in vivo
[13] = Stability of the compound in human plasma assessed as parent compound remaining after 4 hrs; format: ADME, cell-free; details: read-out: Stabilty

solubility (physchem): 31 µg/mL (≈ 51.1 µM)
SMILES: CN1CCN(c2ccc(Nc3cc(-c4cccc(-n5ccc6cc(C7CC7)cc(F)c6c5=O)c4CO)cn(C)c3=O)nc2)CC1

solubility (physchem): 2 µg/mL (≈ 4.21 µM) | solubility kinetic [1]: 1.7 µM (≈ 0.807 µg/mL)
SMILES: Cn1cc(-c2nc3c(-c4ccc(CNC(=O)c5nc(C(C)(C)C)no5)c(F)c4)ccnc3[nH]2)cn1

solubility (physchem): 56 µg/mL (≈ 116 µM)
SMILES: Cn1cc(-c2nc3c(-c4ccc(C5(NC(=O)c6nc(C(C)(C)C)no6)CC5)cc4)ccnc3[nH]2)cn1

solubility (physchem): 28 µg/mL (≈ 52 µM)
SMILES: Cc1c(-c2nc3c(-c4ccc5c(c4)CCC[C@@H]5NC(=O)c4nc(C(C)(C)C)no4)ccnc3[nH]2)cnn1C(C)C

solubility (physchem): 56 µg/mL (≈ 101 µM)
SMILES: Cc1nn(C(C)C)c(C)c1-c1nc2c(-c3ccc4c(c3)CCC[C@H]4NC(=O)c3nc(C(C)(C)C)no3)ccnc2[nH]1

solubility (physchem): 25 µg/mL (≈ 47.7 µM)
SMILES: CC(C)n1cc(-c2nc3c(-c4ccc5c(c4)CCC[C@@H]5NC(=O)c4nc(C(C)(C)C)no4)ccnc3[nH]2)cn1

solubility (physchem): 190 µg/mL (≈ 383 µM)
SMILES: Cn1cc(-c2nc3c(-c4ccc5c(c4)CCC[C@@H]5NC(=O)c4nc(C(C)(C)C)no4)ccnc3[nH]2)cn1

solubility (physchem): 33 µg/mL (≈ 56.8 µM)
SMILES: Cc1nn(C2CCOCC2)cc1-c1nc2c(-c3ccc4c(c3)CCC[C@@H]4NC(=O)c3nc(C(C)(C)C)no3)ccnc2[nH]1

solubility (physchem): 7 µg/mL (≈ 12.1 µM)
SMILES: Cc1c(-c2nc3c(-c4ccc5c(c4)CCC[C@H]5NC(=O)c4nc(C(C)(C)C)no4)ccnc3[nH]2)cnn1C1CCOCC1

AUC [2]: 79 ng·h/mL | microsomal CLint [3]: 32 µL/min/mg | CL [4]: 2.42 L/kg/h | remaining at 4 h [5]: > 85% | Cmax [6]: 849 ng/mL | microsomal CLint [7]: 75 µL/min/mg | microsomal CLint [8]: 67 µL/min/mg | half-life [9]: 116 min | Vd [10]: 2.62 L/kg | bioavailability [11]: 77% | AUC [12]: 3030 ng·h/mL | remaining at 4 h [13]: > 85%
SMILES: Cc1nn(C(C)C)c(C)c1-c1nc2nccc(-c3ccc4c(c3)CCCC[C@H]4NC(=O)c3nc(C(C)(C)C)no3)c2[nH]1
